Tests used:
Saccharomyces cerevisiae = test: Inhibition of Saccharomyces cerevisiae alpha-glucosidase using PNPG as substrate at 200 uM preincubated for 10 mins followed by substrate addition measured after 10 mins
Rattus norvegicus = species on record: Rattus norvegicus; test: Inhibition of rat intestinal alpha-glucosidase using PNPG as substrate at 200 uM after 30 mins
[1] = biological target: T1, Pancreatic alpha-amylase (Sus scrofa) (UniProt P00690); test: Inhibition of pig pancreas alpha-amylase using potato starch as substrate at 200 uM after 15 mins
T1 sequence (whole entry): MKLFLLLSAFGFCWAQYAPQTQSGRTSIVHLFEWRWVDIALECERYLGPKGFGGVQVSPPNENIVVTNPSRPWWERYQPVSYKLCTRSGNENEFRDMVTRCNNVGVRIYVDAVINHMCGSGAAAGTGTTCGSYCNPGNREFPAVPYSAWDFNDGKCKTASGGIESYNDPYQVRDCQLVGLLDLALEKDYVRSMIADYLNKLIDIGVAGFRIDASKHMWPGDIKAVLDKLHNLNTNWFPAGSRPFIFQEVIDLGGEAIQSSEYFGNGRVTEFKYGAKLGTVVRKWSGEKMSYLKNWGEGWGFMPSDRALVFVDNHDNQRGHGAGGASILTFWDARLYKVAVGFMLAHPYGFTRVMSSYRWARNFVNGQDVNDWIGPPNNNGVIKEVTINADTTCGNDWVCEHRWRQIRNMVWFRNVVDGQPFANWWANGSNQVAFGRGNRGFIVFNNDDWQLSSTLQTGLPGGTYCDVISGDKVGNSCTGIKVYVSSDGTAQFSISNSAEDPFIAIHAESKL

[2] = Inhibition of Saccharomyces cerevisiae alpha-glucosidase using PNPG as substrate preincubated for 10 mins followed by substrate addition measured after 10 mins

| inhibition (Saccharomyces cerevisiae) | inhibition (Rattus norvegicus) | inhibition [1] | IC50 [2] | Structure (SMILES) |
| --- | --- | --- | --- | --- |
| 40.1% | 8.5% | 3.3% | – | CC1(C)CC[C@]2(C(=O)O)CC[C@]3(C)C(=CC[C@@H]4[C@@]5(C)C[C@@H](O)[C@H](O)[C@@](C)(COC(=O)[C@H](CC(=O)O)C[C@H]6c7c(cc(O)c(O)c7O)C(=O)O[C@@H]6C(=O)O)[C@@H]5CC[C@]43C)[C@@H]2[C@@H]1O |
| 48.2% | 7.8% | 6.2% | – | CC1(C)CC[C@]2(C(=O)O)CC[C@]3(C)C(=CC[C@@H]4[C@@]5(C)C[C@@H](O)[C@H](O)C(C)(C)[C@@H]5CC[C@]43C)[C@@H]2[C@@H]1O |
| 4.4% | 2.8% | 1.7% | – | CC1(C)CC[C@]2(C(=O)O)CC[C@]3(C)C(=CC[C@@H]4[C@@]5(C)C[C@@H](O)[C@H](O)[C@@](C)(CO)[C@@H]5CC[C@]43C)[C@@H]2[C@@H]1O |
| 8.2% | 6.7% | 4.4% | – | CC1(C)CC[C@]2(C(=O)O[C@@H]3O[C@H](CO)[C@@H](O)[C@H](O)[C@H]3O)CC[C@]3(C)C(=CC[C@@H]4[C@@]5(C)C[C@@H](O)[C@H](O)[C@@](C)(COC(=O)[C@@H](CC(=O)O)C[C@H]6c7c(cc(O)c(O)c7O)C(=O)O[C@@H]6C(=O)O)[C@@H]5CC[C@]43C)[C@@H]2[C@@H]1O |
| 3.1% | – | – | – | CC1(C)CC[C@]2(C(=O)O[C@@H]3O[C@H](CO)[C@@H](O)[C@H](O)[C@H]3O)CC[C@]3(C)C(=CC[C@@H]4[C@@]5(C)C[C@@H](O)[C@H](O)[C@@](C)(CO)[C@@H]5CC[C@]43C)[C@@H]2[C@@H]1O |

Second part, the molecule before the results:

| Structure (SMILES) | inhibition (Saccharomyces cerevisiae) | inhibition (Rattus norvegicus) | inhibition [1] | IC50 [2] |
| --- | --- | --- | --- | --- |
| C[C@H]1O[C@H](O[C@H]2[C@H](O)[C@@H](O)[C@@H](O[C@H]3[C@H](O)[C@@H](O)C(O)O[C@@H]3CO)O[C@@H]2CO)[C@H](O)[C@@H](O)[C@@H]1N[C@H]1C=C(CO)[C@@H](O)[C@H](O)[C@H]1O (stereo not given in full) [ACARBOSE] | 58.6% | 69.3% | 82.1% | 174 µM |
| CC1(C)CC[C@]2(C(=O)O[C@@H]3O[C@H](CO)[C@@H](O)[C@H](O)[C@H]3O)CC[C@]3(C)C(=CC[C@@H]4[C@@]5(C)CC[C@H](O)[C@@](C)(CO)[C@@H]5CC[C@]43C)[C@@H]2[C@@H]1O | 20.7% | 9.7% | 5.6% | – |
| CC1=C2C3=CC[C@@H]4[C@@]5(C)C[C@@H](O)[C@H](O)[C@@](C)(CO)[C@@H]5CC[C@@]4(C)[C@]3(C)CC[C@@]2(C(=O)O[C@@H]2O[C@H](CO)[C@@H](O)[C@H](O)[C@H]2O)CC[C@H]1C | 25.1% | 7.3% | 2.4% | – |
| CC1(C)CC[C@]2(C(=O)O)CC[C@]3(C)C(=CC[C@@H]4[C@@]5(C)C[C@@H](O)[C@H](O)[C@@](C)(CO)[C@@H]5[C@H](O)C[C@]43C)[C@@H]2C1 | 21% | 10.1% | 7.5% | – |
| CC1(C)CC[C@]2(C(=O)O[C@@H]3O[C@H](CO)[C@@H](O)[C@H](O)[C@H]3O)CC[C@]3(C)C(=CC[C@@H]4[C@@]5(C)C[C@@H](O)[C@H](O)C(C)(C)[C@@H]5CC[C@]43C)[C@@H]2[C@@H]1O | 36.1% | 7.8% | 7.2% | – |
| CC1(C)CC[C@]2(C(=O)O)CC[C@]3(C)C(=CC[C@@H]4[C@@]5(C)C[C@@H](O)[C@H](O)[C@@](C)(CO)[C@@H]5CC[C@]43C)[C@@H]2C1 | 48.8% | 4.7% | 9.7% | – |
| CC1(C)CC[C@]2(C(=O)O[C@@H]3O[C@H](CO)[C@@H](O)[C@H](O)[C@H]3O)CC[C@]3(C)C(=CC[C@@H]4[C@@]5(C)C[C@@H](O)[C@H](O)[C@@](C)(CO)[C@@H]5CC[C@]43C)[C@@H]2C1 | 4% | 6.4% | 5.9% | – |

From ChEMBL document CHEMBL3870342, “New polyhydroxytriterpenoid derivatives from fruits of Terminalia chebula Retz. and their α-glucosidase and α-amylase inhibitory activity” (Bioorg Med Chem Lett, 2017)
